IC50 data for 20 compounds are collected here from patent publication US20130281449A1, “Oxazine Derivatives and their Use in the Treatment of Neurological Disorders” (NOVARTIS AG, priority 2011, published 2013).

Molecules are shown by their SMILES. Where a name gives a salt, the structure may show the parent alone.

In assay [1] the test system is Cellular Release of Amyloid Peptide 1-40. Nature of the assay: Test 4: Inhibition of Cellular Release of Amyloid Peptide 1-40. Format: cell-based, Chinese hamster. Conditions: Cricetulus griseus, 24 h; read-out: Amyloid-β1-40 release IC50. On the procedure:
Chinese hamster ovary cells are transfected with the human gene for amyloid precursor protein. The cells are plated at a density of 8000 cells/well into 96-well microtiter plates and cultivated for 24 hours in DMEM cell culture medium containing 10% FCS. The test compound is added to the cells at various concentrations, and the cells are cultivated for 24 hours in the presence of the test compound. […] The potency of the compound is calculated from the percentage of inhibition of amyloid peptide release as a function of the test compound concentration.

The target in another assay is Human BACE-1 (Homo sapiens, UniProt P56817). Nature of the assay: Test 1: Inhibition of Human BACE-1. It counts as biochemical. The settings on record: mean IC50 values in Test 1; recombinant BACE-1, pH 4.5. On the procedure: Test 1: Inhibition of Human BACE-1
IC50 values are calculated from percentage of inhibition of BACE-1 activity as a function of the test compound concentration.

Human BACE-1, sequence (P56817 46-457 limits assumed): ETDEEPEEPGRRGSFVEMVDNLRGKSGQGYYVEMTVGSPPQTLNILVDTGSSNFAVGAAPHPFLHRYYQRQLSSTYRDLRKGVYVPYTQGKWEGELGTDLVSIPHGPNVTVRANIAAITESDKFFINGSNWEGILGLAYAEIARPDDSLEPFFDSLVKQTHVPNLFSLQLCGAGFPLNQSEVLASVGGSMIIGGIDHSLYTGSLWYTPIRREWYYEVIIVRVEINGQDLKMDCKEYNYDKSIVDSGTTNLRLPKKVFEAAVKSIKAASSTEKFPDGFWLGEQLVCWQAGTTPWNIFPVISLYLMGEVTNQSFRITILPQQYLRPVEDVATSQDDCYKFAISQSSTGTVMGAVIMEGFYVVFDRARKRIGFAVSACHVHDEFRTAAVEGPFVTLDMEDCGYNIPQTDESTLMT

What is called IC50 is the concentration that gives 50% inhibition. As for `[2H]C([2H])([2H])OCc1cc(OC([2H])([2H])[2H])cnc1C(=O)Nc1ccc(F)c([C@]2(C(F)F)COCC(N)=N2)c1` [Example 10, 5-Trideuteromethoxy-3-trideuteromethoxymethyl-pyridine-2-carboxylic acid [3-((R)-5-amino-3-difluoromethyl-3,6-dihydro-2H-[1,4]oxazin-3-yl)-4-fluoro-phenyl]-amide], the figures for the half-inhibitory concentration (IC50) (in assay [1]; at Human BACE-1) were 32 nM and 190 nM, respectively.
For `COCc1cc(Cl)cnc1C(=O)Nc1ccc(F)c([C@]2(C(F)F)COCC(N)=N2)c1` [Example 1, 5-Chloro-3-methoxymethyl-pyridine-2-carboxylic acid [3-((R)-5-amino-3-difluoromethyl-3,6-dihydro-2H-[1,4]oxazin-3-yl)-4-fluoro-phenyl]-amide] the same measures were 6 nM and 18 nM.
Regarding `Cc1cc(OC(F)F)cnc1C(=O)Nc1ccc(F)c(C2(C)COC(CF)(CF)C(N)=N2)c1` (stereo not shown) [Example 39, 5-Difluoromethoxy-3-methyl-pyridine-2-carboxylic acid [3-(5-amino-6,6-bis-fluoromethyl-3-methyl-3,6-dihydro-2H-[1,4]oxazin-3-yl)-4-fluoro-phenyl]-amide], the IC50 stood at 22 nM in assay [1] and 300 nM on Human BACE-1.
For `NC1=N[C@@](c2cc(NC(=O)c3ncc(C(F)F)cc3N)ccc2F)(C(F)F)COC1` [Example 12, 3-Amino-5-difluoromethyl-pyridine-2-carboxylic acid [3-((R)-5-amino-3-difluoromethyl-3,6-dihydro-2H-[1,4]oxazin-3-yl)-4-fluorophenyl]-amide] the same measures were 10 nM and 38 nM.
Turning to `[2H]C([2H])([2H])Oc1cnc(C(=O)Nc2ccc(F)c([C@]3(C(F)F)COCC(N)=N3)c2)c(N)n1` [Example 3, 3-Amino-5-tris-deutero-methoxy-pyrazine-2-carboxylic acid [3-((R)-5-amino-3-difluoromethyl-3,6-dihydro-2H-[1,4]oxazin-3-yl)-4-fluoro-phenyl]-amide], the IC50 turned out to be 9 nM in assay [1] and 25 nM on Human BACE-1.
For the compound `C[C@@]1(c2cc(NC(=O)c3ncc(C(F)(F)F)cc3Cl)ccc2F)CO[C@@](C)(C(F)(F)F)C(N)=N1` [Example 34, 3-Chloro-5-trifluoromethyl-pyridine-2-carboxylic acid [3-((3R,6R)-5-amino-3,6-dimethyl-6-trifluoromethyl-3,6-dihydro-2H-[1,4]oxazin-3-yl)-4-fluoro-phenyl]-amide], the half-maximal inhibitory concentration (IC50) in assay [1] was determined as 10 nM; at Human BACE-1 it was 16 nM.
As to `C#CCOc1cnc(C(=O)Nc2ccc(F)c([C@]3(C)CO[C@@](C)(C(F)(F)F)C(N)=N3)c2)c(N)n1` [Example 25, 3-Amino-5-prop-2-ynyloxy-pyrazine-2-carboxylic acid [3-((3R,6R)-5-amino-3,6-dimethyl-6-trifluoromethyl-3,6-dihydro-2H-[1,4]oxazin-3-yl)-4-fluoro-phenyl]-amide], the IC50 (in assay [1]; at Human BACE-1) was 1 nM in each case.
As for `Cc1cc(Cl)cnc1C(=O)Nc1ccc(F)c(C2(C)COC(CF)(CF)C(N)=N2)c1` (stereo not shown) [Example 41, 5-Chloro-3-methyl-pyridine-2-carboxylic acid [3-(5-amino-6,6-bis-fluoromethyl-3-methyl-3,6-dihydro-2H-[1,4]oxazin-3-yl)-4-fluoro-phenyl]-amide], the figures for the IC50 (in assay [1]; on Human BACE-1) were 13 nM and 48 nM, respectively.
Turning to `Cl.[2H]C([2H])([2H])Oc1cnc(C(=O)Nc2ccc(F)c([C@]3(C)CO[C@@](C)(C(F)(F)F)C(N)=N3)c2)c(Cl)c1` [Example 22, 3-Chloro-5-trideutero-methoxy-pyridine-2-carboxylic acid [3-((3R,6R)-5-amino-3,6-dimethyl-6-trifluoromethyl-3,6-dihydro-2H-[1,4]oxazin-3-yl)-4-fluoro-phenyl]-amide hydrochloride], the IC50 in assay [1] turned out to be 7 nM; at Human BACE-1 it was 20 nM.
In the same order, the values of `C#CCOc1cnc(C(=O)Nc2ccc(F)c([C@]3(C(F)F)COCC(N)=N3)c2)c(N)n1` [Example 4, 3-Amino-5-prop-2-ynyloxy-pyrazine-2-carboxylic acid [3-((R)-5-amino-3-difluoromethyl-3,6-dihydro-2H-[1,4]oxazin-3-yl)-4-fluoro-phenyl]-amide] are 1 nM and 2 nM.
With `COc1ccc(C(=O)Nc2ccc(F)c([C@]3(C)CO[C@@](C)(C(F)(F)F)C(N)=N3)c2)c(Cl)n1` [Example 45, N-[3-((3R,6R)-5-Amino-3,6-dimethyl-6-trifluoromethyl-3,6-dihydro-2H-[1,4]oxazin-3-yl)-4-fluoro-phenyl]-2-chloro-6-methoxy-nicotinamide], the IC50 in assay [1] was found to be 720 nM; at Human BACE-1 it was 2600 nM.
For `[2H]C([2H])([2H])OCc1cc(F)cnc1C(=O)Nc1ccc(F)c([C@]2(C(F)F)COCC(N)=N2)c1` [Example 9, 5-Fluoro-3-trideuteromethoxymethyl-pyridine-2-carboxylic acid [3-((R)-5-amino-3-difluoromethyl-3,6-dihydro-2H-[1,4]oxazin-3-yl)-4-fluoro-phenyl]-amide] the same measures were 36 nM and 110 nM.
For `N#Cc1cnc(C(=O)Nc2ccc(F)c([C@]3(C(F)F)COCC(N)=N3)c2)c(N)c1` [Example 11, 3-Amino-5-cyano-pyridine-2-carboxylic acid [3-((R)-5-amino-3-difluoromethyl-3,6-dihydro-2H-[1,4]oxazin-3-yl)-4-fluoro-phenyl]-amide] the same measures were 5 nM and 18 nM.
As to `NC1=N[C@@](c2cc(NC(=O)c3ccc4c(Cl)c[nH]c4n3)ccc2F)(C(F)F)COC1` [Example 5, 3-Chloro-1H-pyrrolo[2,3-b]pyridine-6-carboxylic acid [3-((R)-5-amino-3-difIuoromethyl-3,6-dihydro-2H-[1,4]oxazin-3-yl)-4-fluoro-phenyl]-amide], the 50% inhibitory concentration (IC50) in assay [1] turned out to be 14 nM; at Human BACE-1 it was 12 nM.
In the same order, the values of `[2H]c1nc(C(=O)Nc2cc(F)c(F)c([C@]3(C(F)F)COCC(N)=N3)c2)c(C([2H])([2H])[2H])c([2H])c1Cl` [Example 16, 4,6-Dideutero-5-chloro-3-trideuteromethyl-pyridine-2-carboxylic acid [3-((R)-5-amino-3-difluoromethyl-3,6-dihydro-2H-[1,4]oxazin-3-yl)-4,5-difluoro-phenyl]-amide] are 14 nM and 14 nM.
As to `COc1cc(C(F)F)c(C(=O)Nc2ccc(F)c([C@]3(C)CO[C@@](C)(C(F)(F)F)C(N)=N3)c2)nn1` [Example 30, 4-Difluoromethyl-6-methoxy-pyridazine-3-carboxylic acid [3-((3R,6R)-5-amino-3,6-dimethyl-6-trifluoromethyl-3,6-dihydro-2H-[1,4]oxazin-3-yl)-4-fluoro-phenyl]-amide hydrochloride], the IC50 in assay [1] was found to be 62 nM; at Human BACE-1 it was 150 nM.
`[2H]C([2H])([2H])OCc1cc(C#N)cnc1C(=O)Nc1ccc(F)c([C@]2(C)CO[C@@](C)(C(F)(F)F)C(N)=N2)c1` [Example 31, 5-Cyano-3-trideuteromethoxymethyl-pyridine-2-carboxylic acid [3-((3R,6R)-5-amino-3,6-dimethyl-6-trifluoromethyl-3,6-dihydro-2H-[1,4]oxazin-3-yl)-4-fluoro-phenyl]-amide]: the figures for the IC50 (in assay [1]; on Human BACE-1) were 9 nM and 11 nM, respectively.
In the same order, the values of `C[C@@]1(c2cc(NC(=O)c3ncc(C(F)F)nc3N)ccc2F)CO[C@@](C)(C(F)(F)F)C(N)=N1` [Example 28, 3-Amino-5-difLuoromethyl-pyrazine-2-carboxylic acid [3-((3R,6R)-5-amino-3,6-dimethyl-6-trifluoromethyl-3,6-dihydro-2H-[1,4]oxazin-3-yl)-4-fluoro-phenyl]-amide] are 8 nM and 10 nM.
On to `N#Cc1cnc(C(=O)Nc2ccc(F)c([C@]3(C(F)F)COCC(N)=N3)c2)c(Cl)c1` [Example 2, 3-Chloro-5-cyano-pyridine-2-carboxylic acid [3-((R)-5-amino-3-difluoromethyl-3,6-dihydro-2H-[1,4]oxazin-3-yl)-4-fluoro-phenyl]-amide], for which the IC50 amounted to 11 nM in assay [1] and 32 nM on Human BACE-1.
Take `Cc1cc(C#N)cnc1C(=O)Nc1cc(F)c(F)c([C@]2(C(F)F)COCC(N)=N2)c1` [Example 14, 5-Cyano-3-methyl-pyridine-2-carboxylic acid [3-((R)-5-amino-3-difluoromethyl-3,6-dihydro-2H-[1,4]oxazin-3-yl)-4,5-difluoro-phenyl]-amide]: the half-maximal inhibitory concentration (IC50) in assay [1] worked out at 9 nM; at Human BACE-1, 20 nM.
